Data from ChEMBL document CHEMBL3751797, “Discovery of TRAF-2 and NCK-interacting kinase (TNIK) inhibitors by ligand-based virtual screening methods” (Medchemcomm, 2015).

How the values were obtained:
[1] = molecular target: Glycogen synthase kinase-3 (Homo sapiens) (UniProt P49840+P49841); experiment: Inhibition of human GSK3 using GSM as substrate at 10 uM after 1.5 hrs in presence of 30 uM ATP; type: protein assay
[2] = molecular target: Fibroblast growth factor receptor 2 (Homo sapiens) (UniProt P21802); experiment: Inhibition of human FGFR2 using IGF-1Rtide as substrate at 10 uM after 1 hr in presence of 30 uM ATP
[3] = molecular target: ALK tyrosine kinase receptor (Homo sapiens) (UniProt Q9UM73); experiment: Inhibition of human ALK using IGF-1Rtide as substrate at 10 uM after 2 hrs in presence of 30 uM ATP
[4] = molecular target: Platelet-derived growth factor receptor beta (Homo sapiens) (UniProt P09619); experiment: Inhibition of human PDGFRbeta using srctide as substrate at 10 uM after 1 hr in presence of 30 uM ATP
[5] = molecular target: T1, Aurora kinase A (Homo sapiens) (UniProt O14965); experiment: Inhibition of human AURA using kemptide as substrate at 10 uM after 1 hr in presence of 30 uM ATP
T1 sequence (whole entry): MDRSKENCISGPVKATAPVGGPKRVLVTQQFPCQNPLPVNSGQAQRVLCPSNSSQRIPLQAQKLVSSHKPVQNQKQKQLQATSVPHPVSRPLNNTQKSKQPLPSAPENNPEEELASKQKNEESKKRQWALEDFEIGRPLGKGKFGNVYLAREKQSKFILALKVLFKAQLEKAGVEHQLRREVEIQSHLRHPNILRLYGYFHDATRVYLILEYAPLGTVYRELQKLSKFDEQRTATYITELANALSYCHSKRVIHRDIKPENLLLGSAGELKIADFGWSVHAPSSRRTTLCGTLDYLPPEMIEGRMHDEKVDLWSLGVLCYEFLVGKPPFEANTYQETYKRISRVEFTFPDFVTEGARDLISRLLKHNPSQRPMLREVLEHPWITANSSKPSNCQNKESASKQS

[6] = molecular target: Insulin-like growth factor 1 receptor (Homo sapiens) (UniProt P08069); experiment: Inhibition of human IGF1R at 10 uM in presence of 30 uM ATP
[7] = molecular target: Tyrosine-protein kinase SYK (Homo sapiens) (UniProt P43405); experiment: Inhibition of human SYK using srctide as substrate at 10 uM after 1 hr in presence of 30 uM ATP
[8] = molecular target: Serine/threonine-protein kinase pim-1 (Homo sapiens) (UniProt P11309); experiment: Inhibition of human PIM1 using S6K as substrate at 10 uM after 1 hr in presence of 30 uM ATP
[9] = molecular target: Receptor-type tyrosine-protein kinase FLT3 (Homo sapiens) (UniProt P36888); experiment: Inhibition of human FLT3 using srctide as substrate at 10 uM after 1 hr in presence of 30 uM ATP
[10] = molecular target: Epidermal growth factor receptor (Homo sapiens) (UniProt P00533); experiment: Inhibition of human EGFR using srctide as substrate at 10 uM after 1 hr in presence of 30 uM ATP
[11] = molecular target: Fibroblast growth factor receptor 1 (Homo sapiens) (UniProt P11362); experiment: Inhibition of human FGFR1 using IGF-1Rtide as substrate at 10 uM after 1 hr in presence of 30 uM ATP
[12] = molecular target: Tyrosine-protein kinase BTK (Homo sapiens) (UniProt Q06187); experiment: Inhibition of human BTK using srctide as substrate at 10 uM after 1 hr in presence of 30 uM ATP
[13] = molecular target: T2, TRAF2 and NCK-interacting protein kinase (Homo sapiens, UniProt Q9UKE5); experiment: Inhibition of recombinant TNIK (unknown origin) using LRRKtide as substrate after 1 hr in presence of 30 uM ATP
Target sequence in this assay (Q9UKE5 whole entry): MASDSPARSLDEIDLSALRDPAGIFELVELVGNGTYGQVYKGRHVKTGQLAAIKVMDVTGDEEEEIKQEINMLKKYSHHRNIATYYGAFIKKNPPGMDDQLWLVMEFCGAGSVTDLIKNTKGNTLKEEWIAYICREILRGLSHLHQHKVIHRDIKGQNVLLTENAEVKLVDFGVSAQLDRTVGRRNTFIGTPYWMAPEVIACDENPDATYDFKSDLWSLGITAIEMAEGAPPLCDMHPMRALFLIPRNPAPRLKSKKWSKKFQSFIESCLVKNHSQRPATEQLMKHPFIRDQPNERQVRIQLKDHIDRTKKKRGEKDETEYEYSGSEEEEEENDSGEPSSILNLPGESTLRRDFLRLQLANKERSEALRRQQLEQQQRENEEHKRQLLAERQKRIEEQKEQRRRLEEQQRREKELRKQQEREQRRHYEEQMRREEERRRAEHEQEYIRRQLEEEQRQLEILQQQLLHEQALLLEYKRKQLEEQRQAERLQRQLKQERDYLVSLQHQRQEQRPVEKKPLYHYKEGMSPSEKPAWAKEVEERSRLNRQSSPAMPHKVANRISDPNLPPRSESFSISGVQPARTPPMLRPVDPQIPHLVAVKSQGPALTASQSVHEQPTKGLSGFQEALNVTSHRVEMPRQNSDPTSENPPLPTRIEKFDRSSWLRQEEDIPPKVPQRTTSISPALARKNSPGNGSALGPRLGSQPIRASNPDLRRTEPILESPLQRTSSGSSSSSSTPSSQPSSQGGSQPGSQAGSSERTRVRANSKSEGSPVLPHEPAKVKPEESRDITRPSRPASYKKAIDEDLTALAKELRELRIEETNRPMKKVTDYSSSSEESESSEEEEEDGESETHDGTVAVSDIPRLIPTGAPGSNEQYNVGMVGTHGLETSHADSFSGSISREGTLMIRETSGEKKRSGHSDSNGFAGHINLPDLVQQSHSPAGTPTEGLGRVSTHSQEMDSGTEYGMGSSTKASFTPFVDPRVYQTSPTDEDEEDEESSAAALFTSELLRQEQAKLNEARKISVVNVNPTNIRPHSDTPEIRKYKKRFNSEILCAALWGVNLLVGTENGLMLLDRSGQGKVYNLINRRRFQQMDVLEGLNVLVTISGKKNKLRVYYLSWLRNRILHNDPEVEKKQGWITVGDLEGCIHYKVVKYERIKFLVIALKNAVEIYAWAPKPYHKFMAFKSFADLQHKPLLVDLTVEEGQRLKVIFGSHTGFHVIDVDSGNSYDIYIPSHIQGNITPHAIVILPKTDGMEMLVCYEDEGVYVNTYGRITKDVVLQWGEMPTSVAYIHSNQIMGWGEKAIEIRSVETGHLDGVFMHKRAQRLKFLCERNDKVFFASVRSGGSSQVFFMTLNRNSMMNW

[14] = molecular target: Vascular endothelial growth factor receptor 2 (Homo sapiens) (UniProt P35968); experiment: Inhibition of human KDR using srctide as substrate at 10 uM after 1 hr in presence of 30 uM ATP
[15] = molecular target: Tyrosine-protein kinase JAK2 (Homo sapiens) (UniProt O60674); experiment: Inhibition of human JAK2 using IGF-1Rtide as substrate at 10 uM after 1 hr in presence of 30 uM ATP
NCI-H1703 = experiment: Cytotoxicity against human NCI-H1703 cells transfected with lentiviral vector 7TFP assessed as cell viability at 10 uM after 72 hrs by ATPlite assay; type: cell-based; conditions: nci-h1703, 72 h
[16] = molecular target: T2, TRAF2 and NCK-interacting protein kinase; experiment: Inhibition of recombinant TNIK (unknown origin) using LRRKtide as substrate at 10 uM after 1 hr in presence of 30 uM ATP
Target sequence in this assay (Q9UKE5 whole entry, looked up): as the sequence (Q9UKE5 whole entry) above

[17] = molecular target: T2, TRAF2 and NCK-interacting protein kinase; experiment: Competitive inhibition of recombinant TNIK (unknown origin) using LRRKtide as substrate after 1 hr in presence of 3 uM ATP
Target sequence in this assay (Q9UKE5 whole entry): as above

[18] = molecular target: Phosphatidylinositol 4,5-bisphosphate 3-kinase catalytic subunit alpha isoform (Homo sapiens) (UniProt P42336); experiment: Inhibition of human PI3Kalpha using PIP2 as substrate at 10 uM after 1 hr in presence of 30 uM ATP
[19] = molecular target: T2, TRAF2 and NCK-interacting protein kinase; experiment: Competitive inhibition of recombinant TNIK (unknown origin) using LRRKtide as substrate after 1 hr in presence of 300 uM ATP
Target sequence in this assay (Q9UKE5 whole entry): as above

[20] = molecular target: T2, TRAF2 and NCK-interacting protein kinase; experiment: Competitive inhibition of recombinant TNIK (unknown origin) using LRRKtide as substrate after 1 hr in presence of 30 uM ATP
Target sequence in this assay (Q9UKE5 whole entry): as above

Epidermal growth factor receptor (Homo sapiens), sequence (P00533 whole entry): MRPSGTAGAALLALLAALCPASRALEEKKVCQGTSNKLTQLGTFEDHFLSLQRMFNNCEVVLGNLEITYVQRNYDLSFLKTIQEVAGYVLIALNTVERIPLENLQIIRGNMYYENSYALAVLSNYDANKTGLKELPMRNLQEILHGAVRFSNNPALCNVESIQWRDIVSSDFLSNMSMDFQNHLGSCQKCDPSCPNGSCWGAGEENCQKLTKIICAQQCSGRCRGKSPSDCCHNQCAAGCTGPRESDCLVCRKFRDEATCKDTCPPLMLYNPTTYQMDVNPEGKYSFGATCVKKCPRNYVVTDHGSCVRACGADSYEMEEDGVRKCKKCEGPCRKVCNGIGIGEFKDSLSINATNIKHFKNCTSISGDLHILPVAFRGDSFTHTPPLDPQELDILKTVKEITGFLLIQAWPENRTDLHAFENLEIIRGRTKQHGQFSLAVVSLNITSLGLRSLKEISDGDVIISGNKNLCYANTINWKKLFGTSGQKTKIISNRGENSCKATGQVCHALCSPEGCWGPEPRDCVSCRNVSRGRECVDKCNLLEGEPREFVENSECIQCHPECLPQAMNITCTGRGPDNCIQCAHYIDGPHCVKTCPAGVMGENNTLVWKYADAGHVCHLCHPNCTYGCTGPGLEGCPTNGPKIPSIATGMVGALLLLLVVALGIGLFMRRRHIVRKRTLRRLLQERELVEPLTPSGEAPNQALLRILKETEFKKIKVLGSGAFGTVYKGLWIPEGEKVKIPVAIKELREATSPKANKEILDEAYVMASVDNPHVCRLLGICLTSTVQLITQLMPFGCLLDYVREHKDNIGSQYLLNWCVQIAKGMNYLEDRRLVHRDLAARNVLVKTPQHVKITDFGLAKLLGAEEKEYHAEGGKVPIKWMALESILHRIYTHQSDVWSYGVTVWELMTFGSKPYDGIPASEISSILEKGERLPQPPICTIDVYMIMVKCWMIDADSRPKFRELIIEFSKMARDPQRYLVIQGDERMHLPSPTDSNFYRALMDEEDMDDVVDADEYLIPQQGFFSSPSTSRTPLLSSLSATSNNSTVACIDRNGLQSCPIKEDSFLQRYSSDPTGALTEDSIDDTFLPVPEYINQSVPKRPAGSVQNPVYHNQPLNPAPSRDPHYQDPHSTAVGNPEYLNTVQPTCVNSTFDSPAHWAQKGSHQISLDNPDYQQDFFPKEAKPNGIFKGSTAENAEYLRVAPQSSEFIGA
ALK tyrosine kinase receptor (Homo sapiens), sequence (Q9UM73 19-1620 limits assumed): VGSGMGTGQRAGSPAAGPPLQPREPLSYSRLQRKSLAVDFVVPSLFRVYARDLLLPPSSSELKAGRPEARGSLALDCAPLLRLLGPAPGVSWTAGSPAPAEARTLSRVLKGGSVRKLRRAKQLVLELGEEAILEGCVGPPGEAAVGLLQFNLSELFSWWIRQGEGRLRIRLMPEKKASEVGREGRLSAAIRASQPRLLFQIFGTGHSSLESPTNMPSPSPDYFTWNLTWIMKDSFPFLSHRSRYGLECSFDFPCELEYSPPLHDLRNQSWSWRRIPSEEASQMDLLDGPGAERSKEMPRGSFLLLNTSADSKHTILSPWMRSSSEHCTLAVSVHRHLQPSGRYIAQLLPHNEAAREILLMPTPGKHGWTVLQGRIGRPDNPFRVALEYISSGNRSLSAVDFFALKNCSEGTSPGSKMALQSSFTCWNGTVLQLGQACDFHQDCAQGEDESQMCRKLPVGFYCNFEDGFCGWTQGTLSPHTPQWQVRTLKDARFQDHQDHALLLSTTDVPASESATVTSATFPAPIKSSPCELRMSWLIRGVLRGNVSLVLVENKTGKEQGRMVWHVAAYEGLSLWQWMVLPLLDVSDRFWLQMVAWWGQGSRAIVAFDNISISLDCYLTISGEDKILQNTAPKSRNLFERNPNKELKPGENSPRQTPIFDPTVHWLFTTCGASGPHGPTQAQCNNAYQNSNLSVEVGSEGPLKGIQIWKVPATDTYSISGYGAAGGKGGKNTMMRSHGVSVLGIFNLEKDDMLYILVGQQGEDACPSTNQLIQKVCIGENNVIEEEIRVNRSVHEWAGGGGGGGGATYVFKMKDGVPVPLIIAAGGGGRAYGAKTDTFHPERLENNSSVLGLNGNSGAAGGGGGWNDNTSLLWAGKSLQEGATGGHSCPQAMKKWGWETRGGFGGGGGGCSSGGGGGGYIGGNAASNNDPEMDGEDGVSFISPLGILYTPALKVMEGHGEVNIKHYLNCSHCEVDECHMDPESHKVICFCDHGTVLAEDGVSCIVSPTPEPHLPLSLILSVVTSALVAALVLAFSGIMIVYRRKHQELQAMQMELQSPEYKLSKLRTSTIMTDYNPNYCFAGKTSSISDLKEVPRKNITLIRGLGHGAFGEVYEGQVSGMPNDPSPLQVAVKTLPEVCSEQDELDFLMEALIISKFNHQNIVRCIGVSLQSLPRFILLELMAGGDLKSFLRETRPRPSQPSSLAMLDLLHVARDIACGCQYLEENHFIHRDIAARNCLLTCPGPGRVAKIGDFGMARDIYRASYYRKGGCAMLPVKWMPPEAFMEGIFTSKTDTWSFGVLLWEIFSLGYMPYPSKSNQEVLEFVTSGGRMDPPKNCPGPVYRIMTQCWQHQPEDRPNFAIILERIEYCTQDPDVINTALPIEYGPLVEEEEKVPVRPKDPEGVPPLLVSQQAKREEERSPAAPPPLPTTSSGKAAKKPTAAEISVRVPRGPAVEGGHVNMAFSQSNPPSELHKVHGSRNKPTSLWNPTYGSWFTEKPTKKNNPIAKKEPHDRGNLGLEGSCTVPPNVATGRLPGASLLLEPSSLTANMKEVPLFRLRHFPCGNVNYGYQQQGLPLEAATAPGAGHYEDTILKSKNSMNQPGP
Tyrosine-protein kinase BTK (Homo sapiens), sequence (Q06187 whole entry): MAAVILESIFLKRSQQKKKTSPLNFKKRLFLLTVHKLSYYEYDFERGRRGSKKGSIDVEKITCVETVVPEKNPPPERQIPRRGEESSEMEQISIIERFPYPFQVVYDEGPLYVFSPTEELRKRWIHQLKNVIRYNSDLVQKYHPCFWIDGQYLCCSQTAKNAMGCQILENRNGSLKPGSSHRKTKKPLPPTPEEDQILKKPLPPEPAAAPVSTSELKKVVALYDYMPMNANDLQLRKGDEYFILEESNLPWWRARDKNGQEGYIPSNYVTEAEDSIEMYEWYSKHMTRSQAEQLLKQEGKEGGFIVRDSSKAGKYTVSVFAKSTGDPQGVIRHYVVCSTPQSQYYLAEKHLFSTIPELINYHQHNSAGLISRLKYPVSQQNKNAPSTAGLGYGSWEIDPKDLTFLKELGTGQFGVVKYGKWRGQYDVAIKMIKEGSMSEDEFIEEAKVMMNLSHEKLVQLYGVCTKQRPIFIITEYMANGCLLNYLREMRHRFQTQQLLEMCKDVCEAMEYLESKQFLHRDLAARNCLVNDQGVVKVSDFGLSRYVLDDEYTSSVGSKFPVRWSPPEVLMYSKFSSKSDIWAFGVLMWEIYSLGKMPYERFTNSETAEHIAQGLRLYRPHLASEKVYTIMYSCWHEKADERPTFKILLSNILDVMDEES

## Cc1c(Cl)cccc1-c1ccc(C(=O)Nc2ccc(S(N)(=O)=O)cc2)o1
[1]
  inhibition: 17.3%
[2]
  inhibition: 32.4%
[3]
  inhibition: 18.4%
[4]
  inhibition: 13.8%
[5]
  inhibition: 17.4%
[6]
  inhibition: 7.7%
[7]
  inhibition: 15.3%
[8]
  inhibition: 24%
[9]
  inhibition: 27%
[10]
  inhibition: 51.7%
[11]
  inhibition: 5.2%
[12]
  inhibition: -2.3%
[13]
  IC50: 0.26 µM
[14]
  inhibition: 0.1%
[15]
  inhibition: 23.7%
NCI-H1703
  Activity: Non-toxic
[16]
  inhibition: 76.4%

## CN1CCN(c2ccc3nc(-c4c(N)c5c(F)cccc5[nH]c4=O)[nH]c3c2)CC1 [DOVITINIB]
NCI-H1703
  Activity: Toxic

## CN1CCN(c2ccc(NC(=O)c3ccc(-c4cc(Cl)ccc4Cl)o3)cc2)CC1
[17]
  IC50: 0.394 µM
[1]
  inhibition: 20.7%
[2]
  inhibition: 54.8%
[3]
  inhibition: 17.4%
[4]
  inhibition: 75.7%
[5]
  inhibition: 19.5%
[6]
  inhibition: 3.4%
[7]
  inhibition: 34.9%
[8]
  inhibition: 46.9%
[9]
  inhibition: 93.8%
[10]
  inhibition: 9.3%
[11]
  inhibition: 21.6%
[18]
  inhibition: 11.7%
[12]
  inhibition: 4.3%
[19]
  IC50: 6.18 µM
[13]
  IC50: 0.85 µM
[14]
  inhibition: 64.9%
[15]
  inhibition: 3.5%
NCI-H1703
  Activity: Non-toxic
[20]
  IC50: 0.849 µM
[16]
  inhibition: 94%

## Cc1ccccc1C(=O)N1CCN(c2ccc(NC(=O)c3ccc(-c4ccc(Cl)cc4)o3)cc2)CC1
[16]
  inhibition: 12.9%

## Cc1cc(C(=O)Nc2cccc(S(=O)(=O)N3CCOCC3)c2)sc1-c1ccccc1
[16]
  inhibition: -4.9%

## O=C(Nc1cc(Cl)cc(Cl)c1)c1ccc(-c2ccc([N+](=O)[O-])cc2)o1
[16]
  inhibition: 8.9%

## CNS(=O)(=O)c1ccc(NC(=O)c2cc(C)c(-c3ccccc3)s2)cc1
[16]
  inhibition: 72.8%

## CN1CCN(c2ccc(NC(=O)c3cccc(Cl)c3)cc2)CC1
[16]
  inhibition: 45%

## Cc1cc([N+](=O)[O-])ccc1NC(=O)c1ccc(-c2cccc(Cl)c2Cl)o1
[16]
  inhibition: 4.9%

## O=C(Nc1cccc(NC(=O)c2ccc(Cl)cc2Cl)c1)c1ccc(-c2cccc([N+](=O)[O-])c2)o1
[16]
  inhibition: 16.8%

## O=C1[C@H](Cc2ccc(O)cc2)N2C(=O)CCN(C(=O)NCc3ccccc3)[C@H]2CN1Cc1cccc2ccccc12
NCI-H1703
  Activity: Non-toxic

## COc1ccc(C(=O)/C=C/Nc2ccc(C)c(C)c2)cc1
[16]
  inhibition: 32%

## Cc1cc(C(=O)Nc2ccc(C(=O)N3CCOCC3)cc2)sc1-c1ccccc1
[16]
  inhibition: 60.4%

## Cc1ccc(NC=C2C(=O)c3ccccc3C2=O)cc1C
[16]
  inhibition: 43%

## Cc1ccc(-c2cc(C(=O)Nc3ccncc3)no2)cc1
[16]
  inhibition: 40%

## CCC(=O)N1CCN(c2ccc(NC(=O)c3cc4ccccc4o3)cc2)CC1
[16]
  inhibition: 46%

## O=C(NNC(=O)c1cc2ccccc2cc1O)NC1CCCCC1
[16]
  inhibition: 42%

## CC(=O)Nc1ccc(NC(=O)c2ccc(-c3ccc(Cl)c(Cl)c3)o2)cc1
[16]
  inhibition: 23.1%

## CC(C)C(=O)Nc1cccc(NC(=O)c2ccc(-c3ccc(Cl)cc3)o2)c1
[16]
  inhibition: 4.1%

## CN(C)c1ccc(NC(=O)c2cc3ccccc3o2)cc1
[16]
  inhibition: 39%

## CC[C@@H]1CCc2c(sc(NC(=O)Nc3ccccc3)c2C(N)=O)C1
[13]
  IC50: 10.3 µM
[16]
  inhibition: 79%

## CC(C)(C)c1ccc(/C=C/C(=O)Nc2ccccc2C(N)=O)cc1
[13]
  IC50: 2.74 µM
[16]
  inhibition: 63%

## O=C(Nc1nnc(/C=C/c2ccccc2)s1)c1ccco1
[13]
  IC50: 3.57 µM
[16]
  inhibition: 70%

## Cc1cc(C(=O)Nc2ccccc2C(N)=O)sc1-c1ccccc1
[16]
  inhibition: 61.7%

## O=C(Nc1ccc(Br)cc1)Nc1ccc(CN2CCCC2)cc1
[13]
  IC50: 3.51 µM
[16]
  inhibition: 72%

## O=C(Nc1ccccc1Cl)c1ccc(-c2ccc(Cl)cc2)o1
[16]
  inhibition: 18.7%

## Cc1cc([N+](=O)[O-])ccc1-c1ccc(C(=O)Nc2cccc(Cl)c2N2CCOCC2)o1
[16]
  inhibition: 22.3%
